Data reported in article PMC6534296, “Structural analysis of Cytochrome P450 BM3 mutant M11 in complex with dithiothreitol” (PLoS ONE, 2019).

Biological target: T1, Cytochrome P450 BM3 (CYP102A1) mutant M11 (Priestia megaterium, UniProt P14779, E144G/E268V/E65G/F82I/F88V/G416S/H286Y/L189Q/R48L/Y199C)
T1 construct: heme domain (stop codon introduced after residue 473)
Assay: X-ray crystal structure ([…] Å) and UV/Vis difference spectral titration
Format: binding

T1 sequence (P14779 1-474 R48L/E65G/F82I/F88V/E144G/L189Q/Y199C/E268V/H286Y/G416S): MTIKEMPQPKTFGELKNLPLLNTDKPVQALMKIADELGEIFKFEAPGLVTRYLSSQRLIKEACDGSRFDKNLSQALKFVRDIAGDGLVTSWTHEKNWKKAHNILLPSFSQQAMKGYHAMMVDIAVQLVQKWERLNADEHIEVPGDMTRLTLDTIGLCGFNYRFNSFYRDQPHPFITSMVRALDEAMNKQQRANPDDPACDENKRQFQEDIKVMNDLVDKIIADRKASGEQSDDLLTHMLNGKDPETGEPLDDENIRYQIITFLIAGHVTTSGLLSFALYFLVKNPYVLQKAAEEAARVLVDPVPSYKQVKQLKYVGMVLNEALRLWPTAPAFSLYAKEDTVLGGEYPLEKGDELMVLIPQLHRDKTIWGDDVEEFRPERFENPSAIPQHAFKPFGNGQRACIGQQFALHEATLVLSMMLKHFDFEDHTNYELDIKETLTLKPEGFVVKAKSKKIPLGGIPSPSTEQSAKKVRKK

O[C@@H](CS)[C@@H](O)CS (racemic) [DTT, dithiothreitol]
Kd: 56.8 ± 1.3 µM
